One compound from patent US20020031509A1, “Pharmaceutical composition and method for its manufacture” (priority 1999, published 2002) can be followed below.

Structures are written as SMILES.

In this test the test system is P. aeruginosa. Briefly: Experiment 2 screening for antibiotic effect, P. aeruginosa. The test is classed as cell-based, Pseudomonas aeruginosa. Particulars: 24 h post inoculation. The procedure: The second experiment consisted of a screening for antibiotic effect of individual and combined substances. The materials that were used were:
The method involved the use of a microtiter (ELISA) plate (12×8 wells, i.e 96 wells in total, obtained from NUNC) with serial dilutions of venoms and bacteria at two concentrations.
The incubation time was 24 hours. OD was monitored at 650 nm every hour the first 7-8 hours, and then at 20 hours and 24 hours post inoculation. Each well was given 200 μl of diluted venom plus bacteria.
Three-dimensional diagrams shown as FIG. 3 to 11 summarize the above results. Observe that in each diagram serge 1 (Z axis) is substance BF, serie 2 is NK, 3 is OH, 4 is BA, 5 is TA, 6 is OH+BA, 7 is OH+TA and serie 8 is reference antibiotic. On the X-axis 1-5 is concentration of substance: 500, 250, 125, 62.5 och 31.2 mikrog/ml for substances (N.B. OH+BA and OH+TA have the double concentrations, i.e. the concentration is 1000, 500, 250, 125 and 62.5 ), and 100, 50, 25, 12.5, 6.25 mikrog/ml for reference antibiotic. The name on the diagrams is the tested bacteria strain (initials only given) and time is 7 hours after incubation start at which the substance was added. The combined OH+BA and OH+TA were obtained by mixing the single venoms in the same proportions.

For the compound `NC[C@H]1O[C@H](O[C@H]2[C@H](O)[C@@H](O[C@H]3O[C@H](CO)[C@@H](O)[C@H](N)[C@H]3O)[C@H](N)C[C@@H]2N)[C@H](O)[C@@H](O)[C@@H]1O` [Kanamycin], the antibacterial effect result is listed as “no effect”.
